According to patent US7998965B2, “Glutamate aggrecanase inhibitors” (Wyeth LLC, priority 2005, dated 2011):

Target: T1, purified recombinant human Aggrecanase-1 (rAgg1) (Homo sapiens, UniProt O75173)
T1 sequence (O75173 213-837): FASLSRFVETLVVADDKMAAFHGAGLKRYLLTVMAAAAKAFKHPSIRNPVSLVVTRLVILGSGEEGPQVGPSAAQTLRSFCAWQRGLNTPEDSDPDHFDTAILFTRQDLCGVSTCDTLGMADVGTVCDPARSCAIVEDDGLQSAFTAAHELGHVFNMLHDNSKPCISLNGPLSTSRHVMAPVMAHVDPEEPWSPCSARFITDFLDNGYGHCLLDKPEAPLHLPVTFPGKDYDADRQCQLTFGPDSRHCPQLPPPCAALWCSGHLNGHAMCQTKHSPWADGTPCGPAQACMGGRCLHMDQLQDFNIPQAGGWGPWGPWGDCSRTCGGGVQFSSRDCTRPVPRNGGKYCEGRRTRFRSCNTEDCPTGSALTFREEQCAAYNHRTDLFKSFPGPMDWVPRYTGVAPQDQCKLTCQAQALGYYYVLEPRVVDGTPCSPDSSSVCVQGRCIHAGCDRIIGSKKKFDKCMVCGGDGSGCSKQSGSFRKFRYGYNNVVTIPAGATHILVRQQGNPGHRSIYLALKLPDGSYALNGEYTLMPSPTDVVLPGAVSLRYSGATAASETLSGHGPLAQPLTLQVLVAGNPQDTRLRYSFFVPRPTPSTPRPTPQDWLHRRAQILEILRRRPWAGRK
Test: In vitro fluorescence screen for Aggrecanase-1 inhibitors
Format: biochemical
Settings: Table 1

Row | SMILES | Agg1 IC50 (nM)
1 | COc1cc(CNC(=O)[C@H](CCC(=O)O)NC(=O)c2cccc3c2Cc2ccccc2-3)cc(OC)c1OC [Example 8LLLL, N^2-(9H-fluoren-1-ylcarbonyl)-N^1-(3,4,5-trimethoxybenzyl)-L-α-glutamine] | no inh

Same assay, conditions: Table 1; enzyme not given, column follows Agg1 IC50; read-out: Ki

Row | SMILES | Ki [nM]
2 | O=C(O)CC[C@H](NC(=O)c1ccc2c(c1)Cc1ccccc1-2)C(=O)NCCCc1ccccc1 [Example 8IIII, N^2-(9H-fluoren-2-ylcarbonyl)-N^1-(3-phenylpropyl)-L-α-glutamine] | 9
3 | COc1cc(CNC(=O)[C@H](CCC(=O)O)NC(=O)c2ccc3c(c2)Cc2ccccc2-3)cc(OC)c1OC [Example 8KKKK, N^2-(9H-fluoren-2-ylcarbonyl)-N^1-(3,4,5-trimethoxybenzyl)-L-α-glutamine] | 4
4 | COc1cc(CNC(=O)[C@H](CCC(=O)O)NC(=O)c2ccc3c(c2)C(=O)c2ccccc2-3)cc(OC)c1OC [Example 8MMMM, N^2-[(9-oxo-9H-fluoren-2-yl)carbonyl]-N^1-(3,4,5-trimethoxybenzyl)-L-α-glutamine] | 57
5 | CCCCCCNC(=O)[C@H](CCC(=O)O)NC(=O)c1ccc2c(c1)Cc1ccccc1-2 [Example 8OOOO, N^2-(9H-fluoren-2-ylcarbonyl)-N^1-hexyl-L-α-glutamine] | 60

Same assay, conditions: Table 1; read-out: Agg1 IC50

Row | SMILES | IC50 [nM]
6 | O=C(O)CCC(NC(=O)c1ccc(-c2ccccc2)cc1)C(=O)O (stereo in doubt) [Example 2, N-(1,1′-biphenyl-4-ylcarbonyl)-D-glutamic acid] | 111
7 | O=C(O)CC[C@H](NC(=O)c1ccc(Nc2ncccn2)cc1)C(=O)O [Example 1, N-[4-(pyrimidin-2-ylamino)benzoyl]-L-glutamic acid] | 900
8 | NC(=O)[C@H](CCC(=O)O)NC(=O)c1ccc(Nc2ncccn2)cc1 [Example 3, N^2-[4-(pyrimidin-2-ylamino)benzoyl]-L-alpha-glutamine] | 12700
9 | NC(=O)[C@@H](CCC(=O)O)NC(=O)c1ccc(-c2ccccc2)cc1 [Example 4, N^2-(1,1′-biphenyl-4-ylcarbonyl)-D-alpha-glutamine] | 1100
10 | O=C(O)CC[C@H](NC(=O)c1ccc(-c2ccccc2)cc1)C(=O)NCCCCO [Example 5, N^2-(1,1′-biphenyl-4-ylcarbonyl)-N^1-(4-hydroxybutyl)-L-alpha-glutamine] | 1800
11 | CC(C)(CO)NC(=O)[C@H](CCC(=O)O)NC(=O)c1ccc(-c2ccccc2)cc1 [Example 6B, N^2-(biphenyl-4-ylcarbonyl)-N^1-(2-hydroxy-1,1-dimethylethyl)-L-α-glutamine] | 300
12 | CC(C)(C)CC(C)(C)NC(=O)[C@H](CCC(=O)O)NC(=O)c1ccc(-c2ccccc2)cc1 [Example 6C, N^2-(biphenyl-4-ylcarbonyl)-N^1-(1,1,3,3-tetramethylbutyl)-L-α-glutamine] | 150
13 | CC(C)(Cc1ccccc1)NC(=O)[C@H](CCC(=O)O)NC(=O)c1ccc2c(c1)Cc1ccccc1-2 [Example 6D, N^1-(1,1-dimethyl-2-phenylethyl)-N^2-(9H-fluoren-2-ylcarbonyl)-L-α-glutamine] | 45
14 | CC(C)(Cc1ccc(Cl)cc1)NC(=O)[C@H](CCC(=O)O)NC(=O)c1ccc2c(c1)Cc1ccccc1-2 [Example 6E, N^1-[2-(4-chlorophenyl)-1,1-dimethylethyl]-N^2-(9H-fluoren-2-ylcarbonyl)-L-α-glutamine] | 56
15 | O=C(O)CC[C@H](NC(=O)c1ccc(-c2ccccc2)cc1)C(=O)NCc1cc(F)cc(F)c1 [Example 8AA, N^2-(1,1′-biphenyl-4-ylcarbonyl)-N^1-(3,5-difluorobenzyl)-L-α-glutamine] | 370
16 | Nc1ccc(CNC(=O)[C@H](CCC(=O)O)NC(=O)c2ccc(-c3ccccc3)cc2)cc1 [Example 8AAAA, N^1-(4-aminobenzyl)-N^2-(1,1′-biphenyl-4-ylcarbonyl)-L-α-glutamine] | 100
17 | O=C(O)CC[C@H](NC(=O)c1ccc(-c2ccccc2)cc1)C(=O)NCCN1CCOCC1 [Example 8DDD, N^2-(biphenyl-4-ylcarbonyl)-N^1-(2-morpholin-4-ylethyl)-L-α-glutamine] | 300
18 | Nc1cccc(CNC(=O)[C@H](CCC(=O)O)NC(=O)c2ccc(-c3ccccc3)cc2)c1 [Example 8DDDD, N^1-(3-aminobenzyl)-N^2-(1,1′-biphenyl-4-ylcarbonyl)-L-α-glutamine] | 110
19 | Cc1ccccc1CNC(=O)[C@H](CCC(=O)O)NC(=O)c1ccc(-c2ccccc2)cc1 [Example 8EE, N^2-(1,1′-biphenyl-4-ylcarbonyl)-N^1-(2-methylbenzyl)-L-α-glutamine] | 200
20 | CCN(CC)C(=O)[C@H](CCC(=O)O)NC(=O)c1ccc(-c2ccccc2)cc1 [Example 8EEE, N^2-(biphenyl-4-ylcarbonyl)-N^1,N^1-diethyl-L-α-glutamine] | 7900
21 | O=C(O)CC[C@H](NC(=O)c1ccc(-c2ccccc2)cc1)C(=O)NCc1ccccc1 [Example 8EEEE, N^1-benzyl-N^2-(1,1-biphenyl-4-ylcarbonyl)-L-α-glutamine] | 400
22 | CC(C)(Cc1ccc(F)cc1)NC(=O)[C@@H](CCC(=O)O)NC(=O)c1ccc(-c2ccccc2)cc1 [Example 8FFFF, N^2-(biphenyl-4-ylcarbonyl)-N^1-[2-(4-fluorophenyl)-1,1-dimethylethyl]-D-α-glutamine] | 3600

Row | SMILES | IC50 [nM]
23 | Cc1cccc(CNC(=O)[C@H](CCC(=O)O)NC(=O)c2ccc(-c3ccccc3)cc2)c1C [Example 8HH, N^2-(1,1′-biphenyl-4-ylcarbonyl)-N^1-(2,3-dimethylbenzyl)-L-α-glutamine] | 160
24 | O=C(O)CCC(NC(=O)c1ccc(Nc2ncccn2)cc1)C(=O)NCc1ccccc1 (stereo not drawn) [Example 8HHHH] | 200
25 | O=C(O)CC[C@H](NC(=O)c1ccc(-c2ccccc2)cc1)C(=O)NCC1C2CC3CC(C2)CC1C3 (stereo partly drawn) [Example 8I, N^1-(2-adamantylmethyl)-N^2-(1,1′-biphenyl-4-ylcarbonyl)-L-α-glutamine] | 500
26 | Cc1ccc(CNC(=O)[C@H](CCC(=O)O)NC(=O)c2ccc(-c3ccccc3)cc2)cc1 [Example 8III, N^2-(1,1′-biphenyl-4-ylcarbonyl)-N^1-(4-methylbenzyl)-L-α-glutamine] | 120
27 | O=C(O)CC[C@H](NC(=O)c1ccc2c(c1)Cc1ccccc1-2)C(=O)NCCCc1ccccc1 [Example 8IIII, N^2-(9H-fluoren-2-ylcarbonyl)-N^1-(3-phenylpropyl)-L-α-glutamine] | < 30
28 | COCCNC(=O)[C@H](CCC(=O)O)NC(=O)c1ccc(-c2ccccc2)cc1 [Example 8J, N^2-(1,1′-biphenyl-4-ylcarbonyl)-N^1-(2-methoxyethyl)-L-α-glutamine] | 360
29 | O=C(O)CC[C@H](NC(=O)c1cccc2c1Cc1ccccc1-2)C(=O)NCCCc1ccccc1 [Example 8JJJJ, N^2-(9H-fluoren-1-ylcarbonyl)-N^1-(3-phenylpropyl)-L-α-glutamine] | > 50000
30 | COc1ccc(CNC(=O)[C@H](CCC(=O)O)NC(=O)c2ccc(-c3ccccc3)cc2)cc1 [Example 8K, N^2-(1,1′-biphenyl-4-ylcarbonyl)-N^1-(4-methoxybenzyl)-L-α-glutamine] | 300
31 | CC(C)(C)c1ccc(CNC(=O)[C@H](CCC(=O)O)NC(=O)c2ccc(-c3ccccc3)cc2)cc1 [Example 8KK, N^2-(1,1′-biphenyl-4-ylcarbonyl)-N^1-(4-tert-butylbenzyl)-L-α-glutamine] | 180
32 | COc1cc(CNC(=O)[C@H](CCC(=O)O)NC(=O)c2ccc3c(c2)Cc2ccccc2-3)cc(OC)c1OC [Example 8KKKK, N^2-(9H-fluoren-2-ylcarbonyl)-N^1-(3,4,5-trimethoxybenzyl)-L-α-glutamine] | < 30
33 | CC(C)(C)CCNC(=O)[C@H](CCC(=O)O)NC(=O)c1ccc(-c2ccccc2)cc1 [Example 8LLL, N^2-(biphenyl-4-ylcarbonyl)-N^1-(3,3-dimethylbutyl)-L-α-glutamine] | 230
34 | COc1cc(CNC(=O)[C@H](CCC(=O)O)NC(=O)c2ccc3c(c2)C(=O)c2ccccc2-3)cc(OC)c1OC [Example 8MMMM, N^2-[(9-oxo-9H-fluoren-2-yl)carbonyl]-N^1-(3,4,5-trimethoxybenzyl)-L-α-glutamine] | 47
35 | O=C(O)CC[C@H](NC(=O)c1ccc(-c2ccccc2)cc1)C(=O)NCc1cccc2ccccc12 [Example 8N, N^2-(1,1′-biphenyl-4-ylcarbonyl)-N^1-(1-naphthylmethyl)-L-α-glutamine] | 290
36 | COc1cc(CNC(=O)[C@H](CCC(=O)O)NC(=O)c2ccc(Oc3ccccc3)cc2)cc(OC)c1OC [Example 8NNNN, N^2-(4-phenoxybenzoyl)-N^1-(3,4,5-trimethoxybenzyl)-L-α-glutamine] | 3400
37 | O=C(O)CC[C@H](NC(=O)c1ccc(Br)cc1)C(=O)NCc1ccccc1 [Example 8NNNNNN, N^1-benzyl-N^2-(4-bromobenzoyl)-L-α-glutamine] | ~40000
38 | CCCCCCNC(=O)[C@H](CCC(=O)O)NC(=O)c1ccc2c(c1)Cc1ccccc1-2 [Example 8OOOO, N^2-(9H-fluoren-2-ylcarbonyl)-N^1-hexyl-L-α-glutamine] | 52
39 | CC(=O)NCCNC(=O)[C@H](CCC(=O)O)NC(=O)c1ccc(-c2ccccc2)cc1 [Example 8OOOOOO, N^1-[2-(acetylamino)ethyl]-N^2-(1,1′-biphenyl-4-ylcarbonyl)-L-α-glutamine] | 670

Same assay, conditions: Table 2; read-out: Agg1 IC50

Row | SMILES | IC50 [nM]
40 | Cc1cccc(CNC(=O)[C@H](CCC(=O)O)NC(=O)c2ccc3c(c2)Cc2ccccc2-3)c1 [Example 8CCCCC, N^2-(9H-fluoren-2-ylcarbonyl)-N^1-(3-methylbenzyl)-L-α-glutamine] | 107
41 | CCCCN(C)C(=O)[C@H](CCC(=O)O)NC(=O)c1ccc(-c2ccccc2)cc1 [Example 8EEEEEE, N^2-(biphenyl-4-ylcarbonyl)-N-butyl-N-methyl-L-α-glutamine] | 5000
42 | COc1ccc(CCN(C)C(=O)[C@H](CCC(=O)O)NC(=O)c2ccc(-c3ccccc3)cc2)cc1OC [Example 8GGGGGG, N^2-(biphenyl-4-ylcarbonyl)-N-[2-(3,4-dimethoxyphenyl)ethyl]-N-methyl-L-α-glutamine] | 4200
